Data reported in patent US20040102522A1, “Dosage form of sodium ibuprofen” (priority 2002, published 2004).

Test: Water uptake (hygroscopicity) of sodium ibuprofen forms
Assay type: physicochemical

Row | SMILES | additional water uptake on open storage (open storage over 6 months at 40° C. and 75% RH, water content 13-14% by weight) | water taken up (relative humidity 25% RH, spontaneous)
1 | CC(C)Cc1ccc(C(C)C(=O)O)cc1.O.[Na] (centres unmarked) [sodium ibuprofen hydrate] | did not take up additional water | 
2 | CC(C)Cc1ccc(C(C)C(=O)O)cc1.[Na] (centres unmarked) [water free sodium ibuprofen, sodium ibuprofen] |  | up to 13.6 % by weight
